For the experiment, the target named is T1, Ba/F3 cell EGFR Exon20 ins NPH (Homo sapiens, UniProt P00533, INS773NPH).
T1 construct: expressed in transfected cells; host or cells: Ba/F3
Kind of experiment: Ba/F3 cell proliferation suppression, EGFR Exon20 ins NPH. Type of experiment: cell-based. The conditions noted are these: GI50 class; Ba/F3 cell line with NPH inserted at Exon20 of EGFR; 72 hours. In a few lines:
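After 72 h compound exposure (twelve 3-fold steps, 0.3 nM–50 um final), live cells were measured by CellTiter-Glo luminescence and growth expressed as % of control to derive GI50. Cells were seeded at 3000–5000 per well a day earlier; Ba/F3 medium contained IL-3; three repeats.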

`C=CC(=O)Nc1cc(Nc2cc(N3OCC[C@@H]3c3ccc(F)cc3F)ncn2)c(OC)cc1N1CCC(N2CCC(N3CCOCC3)CC2)CC1` [compound 426, N-(5-((6-((R)-3-(2,4-difluorophenyl)isoxazolidine-2-yl)pyrimidine-4-yl)amino)-4-methoxy-2-(4-morpholino-[1,4'-bipiperidine]-1'-yl)phenyl)acrylamide]: the “Ba/F3 (NPH) Activity” value is on record as “A (GI50 < 50 nM)”.
Then `C=CC(=O)Nc1cc(Nc2cc(N3OCC[C@@H]3c3c(F)ccc(F)c3F)ncn2)c(OC)cc1N1CCN(C)CC1` [compound 629, N-(4-methoxy-2-(4-methylpiperazine-1-yl)-5-((6-((R)-3-(2,3,6-trifluorophenyl)isoxazolidine-2-yl)pyrimidine-4-yl)amino)phenyl)acrylamide], with “B (50 nM ≤ GI50 < 500 nM)”.
Then `C=CC(=O)Nc1cc(Nc2cc(N3OCC[C@@H]3c3ccc(F)c(Cl)c3)ncn2)c(OC)cc1N1CCC(N2CCN(CC3CC3)CC2)CC1` [Example 94, N-(5-((6-((R)-3-(3-chloro-4-fluorophenyl)isoxazolidine-2-yl)pyrimidine-4-yl)amino)-2-(4-(4-(cyclopropylmethyl)piperazine-1-yl)piperidine-1-yl)-4-methoxyphenyl) acrylamide], with “A (GI50 < 50 nM)”; and `C=CC(=O)Nc1cc(Nc2cc(N3OCC[C@@H]3c3cccc(Cl)c3C)ncn2)c(OC)cc1N1CCC(N2CCOCC2)CC1` [compound 486, N-(5-((6-((R)-3-(3-chloro-2-methylphenyl)isoxazolidine-2-yl)pyrimidine-4-yl)amino)-4-methoxy-2-(4-morpholinopiperidine-1-yl)phenyl)acrylamide], with “A (GI50 < 50 nM)”.
To `C=CC(=O)Nc1cc(Nc2cc(N3OCC[C@@H]3c3cccc(C#N)c3)ncn2)c(OC)cc1N1C[C@H]2CCN(C)[C@H]2C1` [compound 331, N-(5-((6-((R)-3-(3-cyanophenyl)isoxazolidine-2-yl)pyrimidine-4-yl)amino)-4-methoxy-2-((3aR, 6aR)-1-methylhexahydropyrrolo [3,4-b]pyrrole-5(1H)-yl)phenyl)acrylamide] belongs “A (GI50 < 50 nM)”; to `C=CC(=O)Nc1cc(Nc2cc(N3OCC[C@@H]3Cc3cccc(F)c3)ncn2)c(OC)cc1N(C)CCN(C)C` [compound 992, N-(2-((2-(dimethylamino)ethyl) (methyl)amino)-5-((6-((S)-3-(3-fluorobenzyl)isoxazolidine-2-yl)pyrimidine-4-yl)amino)-4-methoxyphenyl) acrylamide], “A (GI50 < 50 nM)”.
With `C=CC(=O)Nc1cc(Nc2cc(N3OCC[C@@H]3c3cccc(F)c3Cl)ncn2)c(OC)cc1N1CCC(N2CCN(C3CC3)CC2)CC1` [Example 164, N-(5-((6-((R)-3-(2-chloro-3-fluorophenyl)isoxazolidine-2-yl)pyrimidine-4-yl)amino)-2-(4-(4-cyclopropylpiperazine-1-yl)piperidine-1-yl)-4-methoxyphenyl) acrylamide], the “Ba/F3 (NPH) Activity” value was “A (GI50 < 50 nM)”.
For the compound `C=CC(=O)Nc1cc(Nc2cc(N3OCC[C@@H]3c3ccc(F)cc3F)ncn2)c(OC)cc1N1CCC(N2CCN(C3COC3)CC2)CC1` [Example 197, N-(5-((6-((R)-3-(2,4-difluorophenyl)isoxazolidine-2-yl)pyrimidine-4-yl)amino)-4-methoxy-2-(4-(4-(oxetane-3-yl)piperazine-1-yl)piperidine-1-yl)phenyl)acrylamide], the “Ba/F3 (NPH) Activity” value was “A (GI50 < 50 nM)”.
Take `C=CC(=O)Nc1cc(Nc2cc(N3OCC[C@@H]3c3cccc(OC)c3)ncn2)c(OC)cc1N1CCC(N2C[C@H]3C[C@@H]2CO3)CC1` [compound 726, N-(2-(4-((1R,4R)-2-oxa-5-azabicyclo [2.2.1]heptane-5-yl)piperidine-1-yl)-4-methoxy-5-((6-((R)-3-(3-methoxyphenyl)isoxazolidine-2-yl)pyrimidine-4-yl)amino)phenyl)acrylamide]: the “Ba/F3 (NPH) Activity” value is on record as “A (GI50 < 50 nM)”.
With `C=CC(=O)Nc1cc(Nc2cc(N3OCC[C@@H]3c3cccc(OC)c3)ncn2)c(OC)cc1N1CCC(N2CCN(C(C)=O)CC2)CC1` [compound 779, N-(2-(4-(4-acetylpiperazine-1-yl)piperidine-1-yl)-4-methoxy-5-((6-((R)-3-(3-methoxyphenyl)isoxazolidine-2-yl)pyrimidine-4-yl)amino)phenyl)acrylamide], the “Ba/F3 (NPH) Activity” value is recorded as “A (GI50 < 50 nM)”.
On to `C=CC(=O)Nc1cc(Nc2cc(N3OCC[C@@H]3c3ccc(Cl)cc3F)ncn2)c(OC)cc1N1CCC(N2CCN(CC)CC2)CC1` [compound 409, N-(5-((6-((R)-3-(4-chloro-2-fluorophenyl)isoxazolidine-2-yl)pyrimidine-4-yl)amino)-2-(4-(4-ethylpiperazine-1-yl)piperidine-1-yl)-4-methoxyphenyl) acrylamide], for which the “Ba/F3 (NPH) Activity” value is recorded as “A (GI50 < 50 nM)”.
As for `C=CC(=O)Nc1cc(Nc2cc(N3OCC[C@@H]3c3ccc(F)c(Cl)c3)ncn2)c(OC)cc1N(C)CCN(C)C` [compound 701, N-(5-((6-((R)-3-(3-chloro-4-fluorophenyl)isoxazolidine-2-yl)pyrimidine-4-yl)amino)-2-((2-(dimethylamino)ethyl)(methyl)amino)-4-methoxyphenyl) acrylamide], the “Ba/F3 (NPH) Activity” value is recorded as “A (GI50 < 50 nM)”.
For `C=CC(=O)Nc1cc(Nc2cc(N3OCC[C@@H]3c3ccc(Cl)c(Cl)c3)ncn2)c(OC)cc1N1CCN(C2CCN(C)CC2)CC1` [compound 685, N-(5-((6-((R)-3-(3,4-dichlorophenyl)isoxazolidine-2-yl)pyrimidine-4-yl)amino)-4-methoxy-2-(4-(1-methylpiperidine-4-yl)piperazine-1-yl)phenyl) acrylamide], the “Ba/F3 (NPH) Activity” value is “A (GI50 < 50 nM)”.
To `C=CC(=O)Nc1cc(Nc2cc(N3OCC[C@@H]3c3ccc(Cl)cc3F)ncn2)c(OC)cc1N1CCC(N2CC[C@@H](N(C)C)C2)CC1` [compound 404, N-(5-((6-((R)-3-(4-chloro-2-fluorophenyl)isoxazolidine-2-yl)pyrimidine-4-yl)amino)-2-(4-((R)-3-(dimethylamino)pyrolidine-1-yl)piperidine-1-yl)-4-methoxyphenyl) acrylamide] belongs “B (50 nM ≤ GI50 < 500 nM)”; to `C=C(F)C(=O)Nc1cc(Nc2cc(N3OCC[C@@H]3c3cc(F)cc(F)c3)ncn2)c(OC)cc1N1CCC(N2CCN(C3CC3)CC2)CC1` [Example 120, N-(2-(4-(4-cyclopropylpiperazine-1-yl)piperidine-1-yl)-5-((6-((R)-3-(3,5-difluorophenyl)isoxazolidine-2-yl)pyrimidine-4-yl)amino)-4-methoxyphenyl)-2-fluoroacrylamide], “C (500 nM ≤ GI50 < 5000 nM)”; to `C=CC(=O)Nc1cc(Nc2cc(N3OCC[C@@H]3c3ccc(F)c(F)c3F)ncn2)c(OC)cc1N1CC[C@@H](N(C)C)C1` [compound 622, N-(2-((R)-3-(dimethylamino)pyrolidine-1-yl)-4-methoxy-5-((6-((R)-3-(2,3,4-trifluorophenyl)isoxazolidine-2-yl)pyrimidine-4-yl)amino)phenyl)acrylamide], “C (500 nM ≤ GI50 < 5000 nM)”.

Values taken from patent publication US12157730B2, “Heteroaryl derivative, method for producing same, and pharmaceutical composition comprising same as effective component” (VORONOI INC., priority 2019, dated 2024).
